Where a name gives a salt, the structure may show the parent alone.
Columns and labels:
[1] = Gelling behavior; assay type: physicochemical; details: gelling can compromise tablet disintegration and dissolution rate
Description: 2-fluoro-N-methyl-4-[7-(quinolin-6-ylmethyl)imidazo[1,2-b][1,2,4]triazin-2-yl]benzamide dihydrochloride has a gelling behavior, mostly prominent at pHs above 3.5, which can compromise tablet disintegration and dissolution rate. Drug load and disintegrant type/levels can influence this behavior and need to be carefully selected to ensure adequate in vitro performance.

[2] = Solubility at different pH
[3] = Bulk density; assay type: physicochemical
Description: 2-fluoro-N-methyl-4-[7-(quinolin-6-ylmethyl)imidazo[1,2-b][1,2,4]triazin-2-yl]benzamide dihydrochloride has a very low bulk density (0.085 g/mL), which justifies the need of a densification step prior tabletting. Wet granulation was identified as the most suitable technology for this compound.

pH at which gelling behavior is mostly prominent [1]: above 3.5
solubility ([2]; pH 1, simulated gastric fluid): 7200 µg/mL
solubility ([2]; pH 6.8, aqueous buffer): 79.3 µg/mL
bulk density [3]: 0.085 g/mL
Structure (SMILES): CNC(=O)c1ccc(-c2cnc3ncc(Cc4ccc5ncccc5c4)n3n2)cc1F [2-fluoro-N-methyl-4-[7-(quinolin-6-ylmethyl)imidazo[1,2-b][1,2,4]triazin-2-yl]benzamide dihydrochloride]
